The results in this text go back to patent publication US20250255889A1, “METHODS FOR TREATMENT SELECTION FOR CHRONIC LYMPHOCYTIC LEUKEMIA (CLL)” (The Broad Institute, Inc., priority 2022, published 2025).

Data set [1] deals with primary CLL samples (CD19+ and CD5+ cells). Briefly: High-throughput dynamic BH3 profiling (HT-DBP): drug-induced apoptotic priming (delta priming), cytochrome c release after BH3 peptide. The data set is classed as cell-based, human. Conditions: for priming in CLL groups: CLL sample groups compared with normal PBMCs; for drug-induced apoptotic priming: across CLL subtypes, 65 primary CLL samples, 20 hours drug. The gist of the method:
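Primary CLL cells (CD19+/CD5+) are treated with the agent or DMSO carrier, then briefly exposed to a fixed concentration of a promiscuous BH3 peptide such as BIM. Mitochondrial cytochrome c release serves as the priming surrogate. Delta priming is drug-treated priming minus DMSO-treated priming, run in high-throughput format.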

Data set [2] deals with healthy PBMCs (normal cell types CD14, CD19, CD3). Briefly: HT-DBP delta priming in healthy donor normal cells. Conditions: normal peripheral blood mononuclear cells. Format: cell-based, human. How it is done:
FIG. 17 provides a heatmap showing median delta priming across healthy donors for the indicated normal cell types (CD14, CD19, and CD3).
The assay was robust, as indicated by an 0.92 median Pearson correlation across replicates (FIGS. 5A, 5B, 6A, and 6B). Additionally, the majority of drugs had greater effect on CLL samples than on healthy PBMCs (p<0.001, paired t-test), supporting their specificity (FIGS. 7A-7C).
Delta-priming was measured for the molecular features listed along the top of FIGS. 14, 17, and 32 using the HT-DBP screen. The molecular features included IGHV subtypes, epitypes, expression subtypes (i.e., expression clusters), mutations in driver genes, and recurrent copy-number events. A feature was included in the heatmap of FIG. 14 only if at least 2 patients in a DBP screen had the feature. Median delta-priming was computed across all BH3 peptides and across all patients within the feature. […] Plots showing molecular features for groups of 65 and 81 patients were also compiled (see FIGS. 19, 20).

[3] abbreviates: peptide BAD 0.3 uM, feature EC-m3.
[4] abbreviates: peptide MS1 2.5 uM, feature gain_16p11.2.
Setting [5] is: peptide PUMA 1 uM, feature EC-m2.
Setting [6] is: peptide PUMA 1 uM, feature loss_6q21.
The mark [7] stands for this setting: peptide PUMA 1 uM, feature i-CLL.
Setting [8] is: peptide BAD 0.3 uM, feature BIRC3.
[9] abbreviates: peptide BAD 0.3 uM, feature ITIH2.
Where [10] appears, read: peptide BAD 0.3 uM, feature i-CLL.
Setting [11] is: peptide BAD 0.3 uM, feature loss_9p21.3.
Setting [12] is: peptide BAD 0.3 uM, feature loss_17q11.2.
The mark [13] stands for this setting: peptide BIM 0.01 uM, feature BCOR.
Where [14] appears, read: peptide BIM 0.01 uM, feature n-CLL.
Setting [15] is: peptide MS1 2.5 uM, feature SAMHD1.
[16] abbreviates: peptide MS1 2.5 uM, feature BIRC3.
The mark [17] stands for this setting: peptide MS1 2.5 uM, feature ITIH2.
Where [18] appears, read: peptide MS1 2.5 uM, feature loss_9p21.3.
Setting [19] is: peptide MS1 2.5 uM, feature loss_17q11.2.

In the case of `CC1(C)CCC(c2ccc(Cl)cc2)=C(CN2CCN(c3ccc(C(=O)NS(=O)(=O)c4ccc(N[C@H](CCN5CCOCC5)CSc5ccccc5)c(S(=O)(=O)C(F)(F)F)c4)cc3)CC2)C1` [Navitoclax, navitoclax], the “priming in CLL groups” value in data set [1] was “potentially therapeutically relevant priming”. The “drug-induced apoptotic priming by expression cluster” value in data set [1] (EC-i) is reported as “more sensitive to navitoclax than any other drug”; in data set [1] (EC-u2 (U-CLL)), “most sensitive”. In addition, the direction entry in data set [1] (Feature EC-m2) is listed as “Resistant”; in data set [1] (Feature M-CLL) it was “Sensitive”; in data set [1] (Feature U-CLL) it was “Resistant”; in data set [1] (Feature n-CLL), “Resistant”; in data set [1] (setting [3]) it was “Sensitive”; in data set [1] (peptide BAD 0.3 uM, feature EC-u1), “Resistant”. In addition, the direction result is reported as “Sensitive” in data set [1] (peptide BAD 0.3 uM, feature M-CLL); “Resistant” in data set [1] (peptide BAD 0.3 uM, feature U-CLL); “Sensitive” in data set [1] (peptide BAD 0.3 uM, feature loss_3p21.31); “Sensitive” in data set [1] (peptide BAD 0.3 uM, feature loss_5p15.33); “Sensitive” in data set [1] (peptide BAD 0.3 uM, feature loss_7q36.1); “Sensitive” in data set [1] (peptide BAD 0.3 uM, feature loss_8p). The direction result in data set [1] (peptide BAD 0.3 uM, feature loss_12p13.31a) was “Sensitive”; in data set [1] (peptide BAD 0.3 uM, feature loss_14q32.12), “Sensitive”; in data set [1] (peptide BAD 0.3 uM, feature loss_17p13.3), “Sensitive”; in data set [1] (peptide BAD 0.3 uM, feature n-CLL) it was “Resistant”; in data set [1] (peptide BIM 0.01 uM, feature loss_3p21.31) it was “Sensitive”; in data set [1] (peptide BIM 0.01 uM, feature loss_7q36.1) it was “Sensitive”. The direction result in data set [1] (peptide BIM 0.01 uM, feature loss_8p) was “Sensitive”; in data set [1] (peptide BIM 0.01 uM, feature loss_14q32.12) it was “Sensitive”; in data set [1] (peptide MS1 2.5 uM, feature MYD88), “Sensitive”; in data set [1] (setting [4]) it was “Sensitive”; in data set [1] (peptide MS1 2.5 uM, feature loss_3p21.31), “Sensitive”; in data set [1] (peptide MS1 2.5 uM, feature loss_7q36.1), “Sensitive”. Also, the direction result was “Sensitive” in data set [1] (peptide MS1 2.5 uM, feature loss_8p); “Sensitive” in data set [1] (peptide MS1 2.5 uM, feature loss_14q32.12); “Resistant” in data set [1] (setting [5]); “Sensitive” in data set [1] (peptide PUMA 1 uM, feature EC-m4); “Resistant” in data set [1] (setting [6]); “Sensitive” in data set [1] (peptide PUMA 1 uM, feature loss_14q32.12). For the same compound, in data set [1], the drug-induced apoptotic priming result is recorded as “high priming”. In data set [2], the “priming response in normal cell groups” value is “minimal priming response”.
Regarding `CC1(C)CCC(CN2CCN(c3ccc(C(=O)NS(=O)(=O)c4ccc(NCC5CCOCC5)c([N+](=O)[O-])c4)c(Oc4cnc5[nH]ccc5c4)c3)CC2)=C(c2ccc(Cl)cc2)C1` [Venetoclax, venetoclax], in data set [1], the “priming in CLL groups” value is on record as “potentially therapeutically relevant priming”. In addition, the “drug-induced apoptotic priming by expression cluster” value in data set [1] (EC-m2, within M-CLL ECs) is “least effective”; in data set [1] (EC-m3, within M-CLL ECs), “most effective”. Further, the direction result in data set [1] (Feature EC-m2) was “Resistant”; in data set [1] (Feature loss_13q14.3), “Sensitive”; in data set [1] (setting [3]), “Sensitive”; in data set [1] (peptide BAD 0.3 uM, feature loss_13q14.3), “Sensitive”; in data set [1] (peptide BIM 0.01 uM, feature SAMHD1), “Sensitive”; in data set [1] (peptide MS1 2.5 uM, feature POT1) it was “Sensitive”. The direction entry is “Sensitive” in data set [1] (setting [4]); “Sensitive” in data set [1] (peptide MS1 2.5 uM, feature loss_13q14.13); “Resistant” in data set [1] (setting [5]); “Resistant” in data set [1] (setting [6]). In addition, the drug-induced apoptotic priming entry in data set [1] is “highly effective”. The “positive delta priming values (rank among drugs)” value in data set [1] (across all evaluated BH3 peptides, 42 drugs) was “top-ten drugs with the highest positive delta priming values”. In addition, the “delta priming value of combined treatment” value in data set [1] (combined with MS1 peptide (MCL1 inhibitor), relative to alternative treatments) is “increased delta priming value”. Also, the “priming response in normal cell groups” value in data set [2] was “minimal priming response”.
Take `O=C(CCCCCCC(=O)Nc1ccccc1)NO` [Vorinostat]: the direction entry was “Sensitive” in data set [1] (Feature EC-m2); “Resistant” in data set [1] (Feature EC-m4); “Sensitive” in data set [1] (peptide BIM 0.01 uM, feature EC-m2); “Resistant” in data set [1] (peptide BIM 0.01 uM, feature EC-m4); “Sensitive” in data set [1] (setting [5]); “Resistant” in data set [1] (setting [7]). The direction entry in data set [1] (setting [6]) is recorded as “Sensitive”.
As to `CN1CC[C@@H](c2c(O)cc(O)c3c(=O)cc(-c4ccc(C(F)(F)F)cc4Cl)oc23)[C@@H]1CO` [Voruciclib], the direction result in data set [1] (setting [8]) was “Sensitive”; in data set [1] (setting [9]), “Sensitive”; in data set [1] (setting [10]), “Sensitive”; in data set [1] (setting [11]), “Sensitive”; in data set [1] (setting [12]) it was “Sensitive”; in data set [1] (setting [13]), “Resistant”. The direction result in data set [1] (setting [14]) is recorded as “Resistant”; in data set [1] (setting [15]) it was “Resistant”; in data set [1] (peptide PUMA 1 uM, feature SF3B1) it was “Resistant”; in data set [1] (setting [7]) it was “Sensitive”. Further, the dprim_pearson_corr is 0.3672 in data set [1] (setting [8]); 0.3672 in data set [1] (setting [9]); 0.4321 in data set [1] (setting [10]); 0.3672 in data set [1] (setting [11]); 0.3672 in data set [1] (setting [12]); −0.4056 in data set [1] (setting [13]). The dprim_pearson_corr is on record as −0.3372 in data set [1] (setting [14]) and −0.3337 in data set [1] (setting [15]).
For the compound fludarabine, the “response (apoptotic priming)” value in data set [1] (IGHV mutated CLLs, FDR<0.1, t-test) is recorded as “significant response”. For the same compound, the direction entry in data set [1] (setting [16]), in data set [1] (setting [17]), in data set [1] (setting [18]) and in data set [1] (setting [19]) was “Sensitive” each time. For the same compound, the dprim_pearson_corr in data set [1] (setting [16]) amounted to 0.4431; in data set [1] (setting [17]), 0.5036; in data set [1] (setting [18]), 0.4431; in data set [1] (setting [19]), 0.4431.
